Assay results published in the NIST ThermoML archive (doi:10.1021/je400841s).
± gives the expanded uncertainty stated by the source.

Settings: 101.33 kPa, Liquid; for mass density: Vibrating tube method; for viscosity: Concentric cylinders viscometry; for electrical conductivity: impedancemetry (AC impedance bridge)

Structure (SMILES) | viscosity (298.15 K) [mPa·s] | electrical conductivity (298.15 K) [S/m] | electrical conductivity (303.15 K) [S/m] | viscosity (313.15 K) [mPa·s] | electrical conductivity (313.15 K) [S/m] | viscosity (323.15 K) [mPa·s] | electrical conductivity (323.15 K) [S/m] | viscosity (333.15 K) [mPa·s] | electrical conductivity (333.15 K) [S/m] | viscosity (343.15 K) [mPa·s] | electrical conductivity (343.15 K) [S/m] | other results
CCCCn1cc[n+](C)c1.COS(=O)(=O)[O-] [1-butyl-3-methylimidazolium methyl sulfate] | 223 ± 8 | 0.126 ± 0.005 | 0.16 ± 0.006 | 101 ± 3 | 0.254 ± 0.01 | 64.3 ± 2 | 0.382 ± 0.015 | 43.6 ± 1.4 | 0.551 ± 0.022 | 31.1 ± 1 | 0.757 ± 0.03 | mass density (298.08 K): 1210.5 ± 0.3 kg/m3; mass density (302.78 K): 1207.6 ± 0.3 kg/m3; mass density (312.49 K): 1201.4 ± 0.3 kg/m3; mass density (322.23 K): 1195 ± 0.3 kg/m3; mass density (332.16 K): 1188.7 ± 0.3 kg/m3; mass density (341.68 K): 1182.9 ± 0.3 kg/m3
CCCCn1cc[n+](C)c1.O=S(=O)([O-])C(F)(F)F [1-butyl-3-methylimidazolium trifluoromethanesulfonate] | 86.6 ± 2.7 | 0.301 ± 0.012 | 0.378 ± 0.015 | 45.6 ± 1.5 | 0.553 ± 0.022 | 31.6 ± 1 | 0.763 ± 0.031 | 23 ± 0.7 | 1.01 ± 0.04 | 17.2 ± 0.5 | 1.29 ± 0.052 | mass density (297.98 K): 1294.7 ± 0.3 kg/m3; mass density (302.79 K): 1291.3 ± 0.3 kg/m3; mass density (313 K): 1283.1 ± 0.3 kg/m3; mass density (323.12 K): 1275.2 ± 0.3 kg/m3; mass density (333.12 K): 1267.4 ± 0.3 kg/m3; mass density (343.12 K): 1259.8 ± 0.3 kg/m3
CCn1cc[n+](C)c1.COS(=O)(=O)[O-] [1-ethyl-3-methylimidazolium methylsulfate] | 74.3 ± 2.3 | 0.602 ± 0.024 | 0.723 ± 0.029 | 40.6 ± 1.3 | 1.02 ± 0.041 | 28.8 ± 0.9 | 1.39 ± 0.056 | 21.2 ± 0.7 | 1.84 ± 0.074 | 16.1 ± 0.5 | 2.34 ± 0.093 | mass density (298.03 K): 1282.1 ± 0.3 kg/m3; mass density (312.67 K): 1272.2 ± 0.3 kg/m3; mass density (322.6 K): 1265.8 ± 0.3 kg/m3; mass density (332.35 K): 1259.4 ± 0.3 kg/m3; mass density (342.22 K): 1252.9 ± 0.3 kg/m3
CCn1cc[n+](C)c1.O=S(=O)([O-])C(F)(F)F [1-ethyl-3-methylimidazolium trifluoromethanesulfonate] | 45.9 ± 1.4 | 0.913 ± 0.037 | – | 27.6 ± 0.9 | 1.45 ± 0.058 | 20.2 ± 0.6 | 1.74 ± 0.07 | 15.5 ± 0.5 | 2.19 ± 0.088 | 12.3 ± 0.4 | 2.6 ± 0.1 | mass density (293.15 K): 1382.9 ± 0.3 kg/m3; mass density (303.14 K): 1374.6 ± 0.3 kg/m3; mass density (313.14 K): 1366.3 ± 0.3 kg/m3; mass density (323.14 K): 1358 ± 0.3 kg/m3; mass density (333.14 K): 1349.8 ± 0.3 kg/m3; mass density (343.14 K): 1341.7 ± 0.3 kg/m3; mass density (353.14 K): 1333.7 ± 0.3 kg/m3
